Test system: Huh7-1 cells
Assay: HCV Induced Cytotoxicity Test (Promega CytoTox 96 LDH release)
Type: cell-based, human
Conditions: 5 day HCV-infected Huh7-1 cultures
Protocol: Initially, 6×10^3 Huh7-1 cells are incubated overnight in each well of collagen-coated BioCoat 96-well plates (BD Biosciences, Bedford, Mass.) in 0.2 ml 10% medium composed of Dulbecco's modified Eagle's medium supplemented with 10% fetal bovine serum. Subsequently, at 2 day intervals, the cultures are replenished with fresh 0.2 ml 10% medium. After the cultures become confluent, they continue to be replenished at 2 day intervals with fresh 0.2 ml 10% medium that also includes 1% dimethyl sulfoxide (DMSO). After 20 days of these replenishments, the Huh7-1 cultures are incubated with fresh 1% medium (same as 10% medium except that the serum level is 1%) containing HCV at a multiplicity of infection (MOI) of 0.05 focus forming units (ffu)/cell. The HCV (JFH-1 wt Huh7) stock titer is 1.5×10^5 ffu/ml. The next day (day 1 post-infection) and 2 days later (day 3 post-infection) the media are replenished with fresh 1% medium containing the test compounds dissolved in DMSO. On the 5th day of treatment with the compounds, cell lysates are collected for RNA isolation and Real Time-quantitative Reverse Transcription Polymerase Chain Reaction (RT-qPCR) and culture media are collected for cytotoxicity analysis.
HCV Induced Cytotoxicity Test. To determine whether the compounds described herein are cytotoxic at the tested doses used, the Promega CytoTox 96 Non-Radioactive Cytotoxicity Assay kit (Promega, Madison, Wis.) is used. This kit measures lactate dehydrogenase (LDH) levels in the culture medium, which is released from cells due to plasma membrane integrity loss or necrosis. For this test, 50 uL samples of culture medium are collected from the same 5 day cultures used to examine the RNA levels shown previously.

[1] = concentration ranges of 2.5 to 20 μM

SMILES | toxicity in the assay (LDH levels in the culture medium) (at 25 μM) | toxicity in the assay (LDH levels in the culture medium) [1]
O=C1N[C@]2(CC[C@@H]3CN(Cc4cc5c(cc4Cl)OCO5)C[C@@H]32)Nc2ccccc21 [Example 6] | limited toxicity | little to no toxicity
Cc1ccc2occ(CN3C[C@H]4CC[C@]5(NC(=O)c6ccccc6N5)[C@H]4C3)c(=O)c2c1 [Example 3] | limited toxicity | little to no toxicity
O=C1N[C@]2(CC[C@@H]3CN(Cc4cnc(N5CCOCC5)nc4)C[C@@H]32)Nc2ccccc21 [Example 4] |  | little to no toxicity
